The structures appear in SMILES notation.

This test deals with T1, γ-secretase (Homo sapiens, UniProt P49768).
T1 construct: Human SH-SY5Y neuroblastoma cells overexpressing the direct γ-secretase substrate SPA4CT; endogenous in cells; host or cells: human SH-SY5Y neuroblastoma cells (stably overexpressing the substrate SPA4CT, induced with sodium butyrate)
In words: Cell-Based γ-Secretase Assay (Aβ(40)/Aβ(42) in media of SH-SY5Y cells overexpressing SPA4CT). To be noted: Human SH-SY5Y neuroblastoma cells overexpressing SPA4CT; values given as ranges; read-out: IC50 values for Aβ(1-42) inhibition. The method, then: Cell-Based γ-Secretase Assay
Human SH-SY5Y neuroblastoma cells overexpressing the direct γ-secretase substrate SPA4CT were induced with sodium butyrate (10 mM) for 4 hours prior to plating. Cells were plated at 35,000 cells/well/100 μl in 96-well plates in phenol red-free MEM/10% FBS, 50 mM HEPES, 1% Glutamine and incubated for 2 hrs at 37° C., 5% CO2.
Compounds for testing were diluted into Me2SO to give a ten point dose-response curve. Typically 10 μl of these diluted compounds in Me2SO were further diluted into 182 μl dilution buffer (phenol red-free MEM/10% FBS, 50 mM HEPES, 1% Glutamine) and 10 μl of each dilution was added to the cells in 96-well plates (yielding a final Me2SO concentration of 0.5%). Appropriate vehicle and inhibitor controls were used to determine the window of the assay.
After incubation overnight at 37° C., 5% CO2, 10 μl and 50 μl media were transferred into a fresh Costar round-bottom 96-well plate for detection of Aβ(40) and Aβ(42) peptides, respectively. 40 μl Origen buffer (PBS, 2% BSA, 0.2% Tween-20) was added to the Aβ(40) wells followed by the addition of 25 μl the respective antibody premixes to the wells: • Aβ(40) premix: 1 μg/ml ruthenylated G2-10 antibody, 4 μg/ml biotinylated 4G8 antibody diluted in Origen buffer • Aβ(42) premix: 0.5 μg/ml ruthenylated G2-11 antibody, 4 μg/ml biotinylated 4G8 antibody diluted in Origen buffer
(Biotinylated 4G8 Antibody Supplied by Signet Pathology Ltd; G2-10 and G2-11 Antibodies Supplied by Chemicon)
After overnight incubation of the assay plates on a shaker at 4° C., the Origen M8 Analyser (Igen Inc.) was calibrated according to the manufacturer's instructions. 25 μl of streptavidin magnetic bead (Dynal) premix (400 μg/ml streptavidin beads/ml in Origen buffer) was added to the assay plates and incubated on a shaker for 15 minutes. 150 μl Origen buffer was added to each well and the plates were read on the Origen M8 Analyser according to the manufacturer's instructions.
Cell viability was measured in the corresponding cells after removal of the media for the Aβ assays by a colorimetric cell proliferation assay (CellTiter 96™ AQ assay, Promega) utilizing the bioreduction of MTS (Owen's reagent) to formazan according to the manufacturer's instructions. Briefly, 5 μl of 10×MTS/PES was added to the remaining 50 μl of media before returning to the incubator. The optical density was read at 495 nm after ˜4 hours.
LD50 and IC50 values for inhibition of Aβ(40) and Aβ(42) were calculated by nonlinear regression fit analysis using the appropriate software (eg. Excel fit). The total signal and the background were defined by the corresponding Me2SO and inhibitor controls.
For the compound `CC(C)(C)CC[C@H](c1ccc(C(F)(F)F)cc1)N1CCC(F)(F)[C@H](CC(=O)O)[C@H]1c1ccc(C(F)(F)F)cc1` (relative stereo) [Example 1, {1-{4,4-dimethyl-1-[4-(trifluoromethyl)phenyl]pentyl}-4,4-difluoro-2-[4-(trifluoromethyl)phenyl]piperidin-3-yl}acetic acid], the IC50 is 1000 to 1500 nM.
For the compound `C=C(C)C#C[C@H](CCC(F)(F)F)N1CCC(F)(F)[C@H](CC(=O)O)[C@H]1c1ccc(C(F)(F)F)cc1` (relative stereo) [Example 2, {4,4-difluoro-1-[4-methyl-1-(3,3,3-trifluoropropyl)pent-4-en-2-yn-1-yl]-2-[4-(trifluoromethyl)phenyl]piperidin-3-yl}acetic acid], the half-inhibitory concentration (IC50) fell in the range of 1500 to 2000 nM.
For `C=C(C)C#C[C@H](CCC(=C)C)N1CCC(F)(F)[C@H](CC(=O)O)[C@H]1c1ccc(C(F)(F)F)cc1` (relative stereo) [Example 7, {4,4-difluoro-1-[4-methyl-1-(3-methylbut-3-en-1-yl)pent-4-en-2-yn-1-yl]-2-[4-(trifluoromethyl)phenyl]piperidin-3-yl}acetic acid] the value was 1500 to 2000 nM.
Next, `CC(C)CC[C@H](c1ccc(C(F)(F)F)cc1)N1CCC(F)(F)[C@H](CC(=O)O)[C@H]1c1ccc(C(F)(F)F)cc1` (relative stereo) [Example 8, {4,4-difluoro-1-(4-methyl-1-[4-(trifluoromethyl)phenyl]pentyl}-2-[4-(trifluoromethyl)phenyl]piperidin-3-yl}acetic acid]: 2000 to 3000 nM; `CC(C)(C)CC[C@H](CC(C)(C)C)N1CCC(F)(F)[C@H](CC(=O)O)[C@H]1c1ccc(C(F)(F)F)cc1` (relative stereo) [Example 11, {1-[1-(2,2-dimethylpropyl)-4,4-dimethylpentyl]-4,4-difluoro-2-[4-(trifluoromethyl)phenyl]-piperidin-3-yl}acetic acid]: 1500 to 2000 nM.
For the compound `CC(C)(C)/C=C\[C@H](CC(C)(C)C)N1CCC(F)(F)[C@H](CC(=O)O)[C@H]1c1ccc(C(F)(F)F)cc1` (relative stereo) [Example 12, {1-[(2Z)-1-(2,2-dimethylpropyl)-4,4-dimethylpent-2-en-1-yl]-4,4-difluoro-2-[4-(trifluoromethyl)phenyl]piperidin-3-yl}acetic acid], the IC50 lay within 2000 to 3000 nM.
Next, `CC(C)(C)C[C@@H](CCc1ccc(C(F)(F)F)cc1)N1CCC(F)(F)[C@H](CC(=O)O)[C@H]1c1ccc(C(F)(F)F)cc1` (relative stereo) [Example 14, {1-(3,3-dimethyl-1-{2-[4-(trifluoromethyl)phenyl]ethyl}butyl)-4,4-difluoro-2-[4-(trifluoromethyl)phenyl]piperidin-3-yl}acetic acid]: 2000 to 3000 nM; `CC(C)(C)CCC(CCC(C)(C)C)N1CCC(F)(F)[C@H](CC(=O)O)[C@H]1c1ccc(C(F)(F)F)cc1` (relative stereo) [Example 15, {1-[1-(3,3-dimethylbutyl)-4,4-dimethylpentyl]-4,4-difluoro-2-[4-(trifluoromethyl)phenyl]piperidin-3-yl}acetic acid]: 1500 to 2000 nM.
With `CC(C)(C)C#C[C@H](CCCC(C)(C)C)N1CCC(F)(F)[C@H](CC(=O)O)[C@H]1c1ccc(C(F)(F)F)cc1` (relative stereo) [Example 17, {1-[1-(3,3-dimethylbut-1-yn-1-yl)-5,5-dimethylhexyl]-4,4-difluoro-2-[4-(trifluoromethyl)phenyl]piperidin-3-yl}acetic acid], the IC50 was in the range of 1000 to 1500 nM.
Take `CC(C)(C)/C=C\[C@H](CCC(F)(F)F)N1CCC(F)(F)[C@H](CC(=O)O)[C@H]1c1ccc(C(F)(F)F)cc1` (relative stereo) [Example 20, {1-[(2Z)-4,4-dimethyl-1-(3,3,3-trifluoropropyl)pent-2-en-1-yl]-4,4-difluoro-2-[4-(trifluoromethyl)phenyl]piperidin-3-yl}acetic acid]: the IC50 is under 500 nM.
Consider `CC(C)(C)C#CCN1[C@H](c2ccc(C(F)(F)F)cc2)[C@@H](CC(=O)O)C(F)(F)C[C@H]1c1ccc(C(F)(F)F)cc1` (relative stereo) [Example 23, {1-(4,4-dimethylpent-2-yn-1-yl)-4,4-difluoro-2,6-bis[4-(trifluoro-methyl)phenyl]piperidin-3-yl}acetic acid], for which the IC50 was 2000 to 3000 nM.
`CC(C)(C)CCCN1[C@H](c2ccc(C(F)(F)F)cc2)[C@@H](CC(=O)O)C(F)(F)C[C@H]1c1ccc(C(F)(F)F)cc1` (relative stereo) [Example 24, {1-(4,4-dimethylpentyl)-4,4-difluoro-2,6-bis[4-(trifluoromethyl)phenyl]piperidin-3-yl}acetic acid]: the IC50 fell in the range of 1000 to 1500 nM.
For `CC(C)(C)CC[C@H](CCC(F)(F)F)N1CCC(F)(F)[C@H](CC(=O)O)[C@H]1c1ccc(C(F)(F)F)cc1` (single isomer, unassigned) [Example 18, {1-[4,4-dimethyl-1-(3,3,3-trifluoropropyl)pentyl]-4,4-difluoro-2-[4-(trifluoromethyl)phenyl]piperidin-3-yl}acetic acid] the value was under 500 nM; for `CC(C)(C)C#C[C@H](CCC(F)(F)F)N1CCC(F)(F)[C@H](CC(=O)O)[C@H]1c1ccc(C(F)(F)F)cc1` (single isomer, unassigned) [Example 19, {1-[4,4-dimethyl-1-(3,3,3-trifluoropropyl)pent-2-yn-1-yl]-4,4-difluoro-2-[4-(trifluoromethyl)phenyl]piperidin-3-yl}acetic acid], under 500 nM; for `CC(C)(C)CC[C@H](CCC(F)(F)F)N1CCC(F)(F)[C@H](CC(=O)O)[C@H]1c1ccc(C(F)(F)F)cc1` (single isomer, unassigned) [Example 22, {1-[4,4-dimethyl-1-(3,3,3-trifluoropropyl)pentyl]-4,4-difluoro-2-[4-(trifluoromethyl)phenyl]piperidin-3-yl}acetic acid], 1000 to 1500 nM.
In the case of `CC(C)(C)/C=C\[C@H](CCC(F)(F)F)N1CCC(F)(F)[C@H](CC(=O)O)[C@H]1c1ccc(C(F)(F)F)cc1` [Example 6, {1-[(2Z)-4,4-dimethyl-1-(3,3,3-trifluoropropyl)pent-2-en-1-yl]-4,4-difluoro-2-[4-(trifluoromethyl)phenyl]piperidin-3-yl}acetic acid], the IC50 lay within 1000 to 1500 nM.

As a reminder, the IC50 is the concentration that inhibits the measured activity by half.

Source of the values: patent US20100010041A1, “DIFLUORINATED PIPERIDINES FOR TREATMENT OF ALZHEIMER'S DISEASE AND RELATED CONDITIONS” (priority 2006, published 2010).
